Data on seven compounds can be found in patent publication US11427615B2, “Peptide compound and application thereof, and composition containing peptide compound” (XDCEXPLORER (SHANGHAI) CO., LTD., priority 2017, dated 2022).

For this experiment, the target named is T1, human kiss1 receptor (GPR54) (Homo sapiens, UniProt Q969F8).
T1 construct: host or cells: NFAT-bla CHO-K1 cells (Chinese hamster ovary), purchased recombinant cell line
As to the kind of experiment: Kiss1 receptor (GPR54) binding activity of agonists, FRET detection in NFAT-bla CHO-K1 cells. In kind it is cell-based. The conditions noted are these: preliminary data, read-out: Preliminary measurement data (GPR54) EC50.

The mark [1] stands for this setting: GPR54, measured according to the method of effect Embodiment 1.

Where two headings read alike, the source gives them in different places. Starred links: 1 amine or outer side, 2 acyl side, 3 side chain; linkers in the order of their positions; H or OH if unused. Non-standard residues stand in square brackets, D forms with d. Residues, ends and D or L forms follow the SMILES beside them. X11 = O=C(c1nnc([C@H](Cc2ccccc2)N[*:1])[nH]1)[*:2]; dPhe(2,4-Cl2) = N[C@H](Cc1ccc(Cl)cc1Cl)C(=O)O; Ala(2-furyl) = N[C@@H](Cc1ccco1)C(=O)O; Pro(4,4-F2) = O=C(O)[C@@H]1CC(F)(F)CN1; dPhe(4-I) = N[C@H](Cc1ccc(I)cc1)C(=O)O; Arg(Me) = CNC(=N)NCCC[C@H](N)C(=O)O; Hyp = O=C(O)[C@@H]1C[C@@H](O)CN1; 2Thi = N[C@@H](Cc1cccs1)C(=O)O; Pip = O=C(O)[C@@H]1CCCCN1; dPip = O=C(O)[C@H]1CCCCN1; Ac6c = NC1(C(=O)O)CCCCC1; Aze = O=C(O)[C@@H]1CCN1; azaGly = NNC(=O)O; βAla = NCCC(=O)O

T1 sequence (Q969F8 whole entry): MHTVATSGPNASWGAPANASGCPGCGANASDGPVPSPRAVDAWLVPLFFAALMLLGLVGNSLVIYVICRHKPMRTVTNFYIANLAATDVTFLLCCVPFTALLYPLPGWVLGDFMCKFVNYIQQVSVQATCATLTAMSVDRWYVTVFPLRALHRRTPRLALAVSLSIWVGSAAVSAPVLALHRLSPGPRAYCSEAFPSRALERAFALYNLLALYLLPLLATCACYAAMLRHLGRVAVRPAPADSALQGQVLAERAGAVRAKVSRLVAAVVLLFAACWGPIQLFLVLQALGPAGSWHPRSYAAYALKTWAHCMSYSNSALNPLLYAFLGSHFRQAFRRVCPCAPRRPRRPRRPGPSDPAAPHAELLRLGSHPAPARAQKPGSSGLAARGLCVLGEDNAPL

Take `CNC(=N)NCCC[C@H](NC(=O)[C@H](CC(C)C)NC(=O)C1(NC(=O)[C@H](Cc2ccccc2)NC(=O)[C@@H](NC(=O)[C@H](CC(N)=O)NC(=O)[C@H](Cc2cccs2)NC(=O)[C@@H](Cc2ccc(Cl)cc2Cl)NC(C)=O)[C@@H](C)O)CCCCC1)C(=O)N[C@@H](Cc1c[nH]c2ccccc12)C(N)=O` [YA-206, Ac-[D-Phe(2,4-DiCl)]-Thi-Asn-Thr-Phe-A6c-Leu-Arg(Me)-Trp-NH2] (Ac-[dPhe(2,4-Cl2)][2Thi]NTF[Ac6c]L[Arg(Me)]W-NH2): the EC50 (commonly the concentration needed to bring the measured effect to its halfway point) under setting [1] is 3.6 nM.

Take `CNC(=N)NCCC[C@H](NC(=O)[C@H](CC(C)C)NC(=O)[C@@H]1CCN1C(=O)[C@H](Cc1ccccc1)NC(=O)[C@H](Cc1ccco1)NC(=O)[C@H](CC(N)=O)NC(=O)[C@@H]1CC(F)(F)CN1C(=O)[C@@H](Cc1ccc(O)cc1)NC(C)=O)C(=O)N[C@@H](Cc1c[nH]c2ccccc12)C(N)=O` [YA-205, Ac-(D-Tyr)-DiFluorPro-Asn-2Fua-Phe-Aze-Leu-Arg(Me)-Trp-NH2] (Ac-[dY][Pro(4,4-F2)]N[Ala(2-furyl)]F[Aze]L[Arg(Me)]W-NH2): the EC50 under setting [1] is 50.3 nM.

As to `CNC(=N)NCCC[C@H](NC(=O)[C@H](CC(C)C)NC(=O)C1(NC(=O)[C@H](Cc2ccccc2)NC(=O)[C@@H](NC(=O)[C@H](CC(N)=O)NC(=O)[C@H]2CCCCN2C(=O)[C@@H](Cc2ccc(O)cc2)NC(C)=O)[C@@H](C)O)CCCCC1)C(=O)N[C@@H](Cc1c[nH]c2ccccc12)C(N)=O` [YA-229, Ac-(D-Tyr)-(R-Pip)-Asn-Thr-Phe-A6c-Leu-Arg(Me)-Trp-NH2] (Ac-[dY][dPip]NTF[Ac6c]L[Arg(Me)]W-NH2), the EC50 under setting [1] worked out at 20.3 nM.

As to `CNC(=N)NCCC[C@H](NC(=O)[C@H](CC(C)C)NC(=O)NNC(=O)[C@H](Cc1ccccc1)NC(=O)[C@@H](NC(=O)[C@H](CC(N)=O)NC(=O)[C@@H]1C[C@@H](O)CN1C(=O)[C@@H](Cc1ccc(I)cc1)NC(C)=O)[C@@H](C)O)C(=O)N[C@@H](Cc1c[nH]c2ccccc12)C(N)=O` [YA-358, Ac-(D-Phe(4-I))-Hyp-Asn-Thr-Phe-azaGly-Leu-Arg(Me)-Trp-NH2] (Ac-[dPhe(4-I)][Hyp]NTF[azaGly]L[Arg(Me)]W-NH2), the EC50 under setting [1] was determined as 0.032 nM.

`CNC(=N)NCCC[C@H](NC(=O)[C@H](CC(C)C)NC(=O)C1(NC(=O)[C@H](Cc2ccccc2)NC(=O)[C@@H](NC(=O)[C@H](CC(N)=O)NC(=O)[C@@H]2CCCCN2C(=O)[C@@H](Cc2ccc(O)cc2)NC(C)=O)[C@@H](C)O)CCCCC1)C(=O)N[C@@H](Cc1c[nH]c2ccccc12)C(N)=O` [YA-228, Ac-D-Tyr-(S-Pip)-Asn-Thr-Phe-A6c-Leu-Arg(Me)-Trp-NH2] (Ac-[dY][Pip]NTF[Ac6c]L[Arg(Me)]W-NH2): the EC50 under setting [1] stood at 0.65 nM.

Turning to `CNC(=N)NCCC[C@H](NC(=O)[C@H](CC(C)C)NC(=O)c1nnc([C@H](Cc2ccccc2)NC(=O)[C@@H](NC(=O)[C@H](CC(N)=O)NC(=O)[C@@H]2C[C@@H](O)CN2C(=O)[C@@H](Cc2ccc(O)cc2)NC(C)=O)[C@@H](C)O)[nH]1)C(=O)N[C@@H](Cc1c[nH]c2ccccc12)C(N)=O` [YA-209, Ac-(D-Tyr)-Hyp-Asn-Thr-{(S)-5-(1-amino-2-phenylethyl)-4H-1,2,4-triazole-3-carboxylic acid}-Leu-Arg(Me)-Trp-NH2] (Ac-[dY][Hyp]NT[X11]L[Arg(Me)]W-NH2), the EC50 under setting [1] came to 1.4 nM.

In the case of `CNC(=N)NCCC[C@H](NC(=O)[C@H](CC(C)C)NC(=O)CCNC(=O)[C@H](Cc1ccccc1)NC(=O)[C@@H](NC(=O)[C@H](CC(N)=O)NC(=O)[C@@H]1C[C@@H](O)CN1C(=O)[C@@H](Cc1ccc(O)cc1)NC(C)=O)[C@@H](C)O)C(=O)N[C@@H](Cc1c[nH]c2ccccc12)C(N)=O` [YA-337, Ac-(D-Tyr)-Hyp-Asn-Thr-Phe-BetaAla-Leu-Arg(Me)-Trp-NH2] (Ac-[dY][Hyp]NTF[βAla]L[Arg(Me)]W-NH2), for the setting “human kiss1 receptor (GPR54), NFAT-bla CHO-K1 cells, FRET, method of effect Embodiment 1”, the EC50 was 2.2 nM.
